Laboratory results reported in article PMC11456916, “A screen for cell envelope stress uncovers an inhibitor of prolipoprotein diacylglyceryl transferase, Lgt, in Escherichiacoli” (iScience, 2024).

How the values were obtained:
E. coli ΔtolC-pore [1] = assay: Live cell fluorescence microscopy, cell width; type: cell-based; settings: increasing concentrations, 1 h, DAPI and FM4-64 stain
Description: Figure 4 MAC-0452936 inhibited prolipoprotein diacylglyceryl transferase, Lgt (A) Growth inhibition of E. coli ΔtolC-pore, three independent MAC-0452936 resistance mutants with a V109A substitution in Lgt (2,959,071A→G), a mutant with an A37T substitution (2,959,288C→T), and a mutant with a G138A substitution (2,958,984C→G). The experiment was conducted in biological triplicate. Data are represented as mean ± SEM. (B) Structure of Lgt from E. coli with two phosphatidyl-glycerol (PG) moieties bound (PDB: 5AZB).[49] Mutated residues from spontaneous resistance mutants are highlighted in blue on proximal α-helices, with the blue sphere highlighting the space in between the mutated residues where both PG moieties reside. […] The width of at least 240 cells was measured at each MAC-0452936 concentration, with specific n values for each concentration of MAC-0452936 listed in the figure. […]
An overnight culture of E. coli ΔtolC-pore was prepared, then diluted (1:100) into fresh LB media and grown to the mid-exponential phase of growth (OD600 ∼0.5). […] Samples were imaged using a Nikon Eclipse Ti inverted microscope at 100× magnification, with a minimum of 200 cells counted per image. Images were quantified with ImageJ, using the following macro. […]

E. coli ΔtolC-pore [2] = assay: Time-kill assay; type: cell-based
Text: As Lgt is found at the inner membrane of Gram-negative bacteria, we sought to rule out physical perturbation of the membrane as the cause of the antibacterial activity observed for MAC-0452936. […] To that end, we treated both non-growing E. coli ΔtolC-pore in a nutrient-deplete medium (PBS) and actively growing E. coli ΔtolC-pore in a nutrient-replete medium (LB) with varying concentrations of MAC-0452936 and enumerated colony-forming units (CFUs) at different time points (Figure S9A). […] Indeed, MAC-0452936 reduced the bacterial counts of E. coli ΔtolC-pore to the limit of detection after 6 h at compound concentrations greater than 2 μg/mL. We then tested MAC-0452936 for hemolytic activity against human-derived red blood cells and cytotoxicity against HEK-293 cells. […] However, we did observe a modest decrease in the viability of HEK-293 cells when treated with concentrations of MAC-0452936 greater than 8 μg/mL.
E. coli ΔtolC-pore was grown overnight in LB broth. For killing in nutrient-deplete media, overnight culture was pelleted by centrifugation at 5,000g for 30 min, and resuspended in sterile PBS buffer. Cells in PBS were added to a microwell plate containing different concentrations of MAC-0452936 (100 μL final volume), and incubated for the specified time at 37°C with shaking. At the specified time points, cultures were pelleted by centrifugation 5,000g for 30 min at 4°C, then 10-fold serially diluted in PBS before being plated on LB agar for CFU enumeration. For killing of actively growing cells in nutrient replete media, overnight culture of E. coli ΔtolC-pore was diluted 1/1000 into fresh LB broth and grown at 37°C with shaking to the early-log phase of growth (∼2.5 h, OD600 ∼0.2). Cells in LB broth were then added to a microwell plate containing different concentrations of MAC-0452936 (100 μL final volume), and incubated for the specified time at 37°C with shaking. At the specified time points, cultures were pelleted by centrifugation 5,000g for 30 min at 4°C, then 10-fold serially diluted in PBS before being plated on LB agar for CFU enumeration.

## COc1ccc(C(=O)O/N=C(\c2cccs2)C(C)(C)C)cc1 [MAC-0452936, (Z)-2-Pivaloylthiophene O-(4-methoxybenzoyl) oxime]
E. coli ΔtolC-pore [1]
  effect on cell width and morphology: dose-dependent increase in cell width
E. coli ΔtolC-pore [2]; LB, after 6 h
  compound concentrations that reduced bacterial counts to the limit of detection: greater than 2 μg/mL
E. coli ΔtolC-pore [2]; nutrient-deplete medium (PBS), CFU
  killing of non-growing bacteria: could not kill non-growing bacteria
E. coli ΔtolC-pore [2]; nutrient-replete medium (LB), CFU
  killing of actively growing bacteria: potent bactericidal activity
